Results taken from patent publication US20230133958A1, “COMPOUNDS USEFUL IN MODULATING EGFR AND PI3K” (Mekanistic Therapeutics LLC, priority 2021, published 2023).

What was measured:
[1] = test system: SK-MEL-5; test: NCI COMPARE panel (SRB growth inhibition), SK-MEL-5; type: cell-based; conditions: Homo sapiens; Melanoma, SK-MEL-5, 48 h
Method: (§1) The human tumor cell lines of the cancer screening panel are grown in RPMI 1640 medium containing 5% fetal bovine serum and 2 mM L-glutamine. For a typical screening experiment, cells are inoculated into 96 well microtiter plates in 100 µL at plating densities ranging from 5,000 to 40,000 cells/well depending on the doubling time of individual cell lines. After cell inoculation, the microtiter plates are incubated at 37° C., 5% CO2, 95% air and 100% relative humidity for 24 h prior to addition of experimental drugs.
(§2) After 24 h, two plates of each cell line are fixed in situ with TCA, to represent a measurement of the cell population for each cell line at the time of drug addition (Tz). Experimental drugs are solubilized in dimethyl sulfoxide at 400-fold the desired final maximum test concentration and stored frozen prior to use. […]
(§3) Following drug addition, the plates are incubated for an additional 48 h at 37° C., 5 % CO2, 95% air, and 100% relative humidity. […] Bound stain is subsequently solubilized with 10 mM trizma base, and the absorbance is read on an automated plate reader at a wavelength of 515 nm. […] Using the seven absorbance measurements [time zero, (Tz), control growth, (C), and test growth in the presence of drug at the five concentration levels (Ti)], the percentage growth is calculated at each of the drug concentrations levels. Percentage growth inhibition is calculated as: […]

[2] = biological target: EGFR (Homo sapiens, UniProt P00533); test: Z'-LYTE / Adapta biochemical kinase assay, EGFR; conditions: for inhibition at 0.1 µM: concentration of 100 nM/liter, read-out: Percent Inhibition of target enzymes, EGFR
Description: The Z′-LYTE® biochemical assay employs a fluorescence-based, coupled-enzyme format and is based on the differential sensitivity of phosphorylated and non-phosphorylated peptides to proteolytic cleavage. The peptide substrate is labeled with two fluorophores—one at each end—that make up a FRET pair. In the primary reaction, the kinase transfers the gamma-phosphate of ATP to a single tyrosine, serine or threonine residue in a synthetic FRET-peptide. In the secondary reaction, a site-specific protease recognizes and cleaves non-phosphorylated FRET-peptides. Phosphorylation of FRET-peptides suppresses cleavage by the Development Reagent. Cleavage disrupts FRET between the donor (i.e., coumarin) and acceptor (i.e., fluorescein) fluorophores on the FRET-peptide, whereas uncleaved, phosphorylated FRET-peptides maintain FRET. A ratiometric method, which calculates the ratio (the Emission Ratio) of donor emission to acceptor emission after excitation of the donor fluorophore at 400 nm, is used to quantitate reaction progress.
A significant benefit of this ratiometric method for quantitating reaction progress is the elimination of well-to-well variations in FRET-peptide concentration and signal intensities. As a result, the assay yields very high Z′-factor values (>0.7) at a low percent phosphorylation.
Both cleaved and uncleaved FRET-peptides contribute to the fluorescence signals and therefore to the Emission Ratio. The extent of phosphorylation of the FRET-peptide can be calculated from the Emission Ratio. The Emission Ratio will remain low if the FRET-peptide is phosphorylated (i.e., no kinase inhibition) and will be high if the FRET-peptide is non-phosphorylated (i.e., kinase inhibition).
Enzyme: The ADAPTA universal kinase assay is a homogenous, fluorescent based immunoassay for the detection of ADP. In contrast to ATP depletion assays, the ADAPTA assay is extremely sensitive to ADP formation such that a majority of the signal change occurs in the first 10-20% conversion of ATP to ADP. This makes the ADAPTA universal kinase assay ideally suited for use with low activity kinases.
The principle of the ADAPTA universal kinase assay is outlined below. The assay itself can be divided into two phases: a kinase reaction phase, and an ADP detection phase. In the kinase reaction phase, all components required for the kinase reaction are added to the well, and the reaction is allowed to incubate for 60 minutes. After the reaction, a detection solution consisting of a europium labeled anti-ADP antibody, an Alexa Fluor® 647 labeled ADP tracer, and EDTA (to stop the kinase reaction) is added to the assay well. ADP formed by the kinase reaction (in the absence of an inhibitor) will displace the Alexa Fluor® 647 labeled ADP tracer from the antibody, resulting in a decrease in the TR-FRET signal. In the presence of an inhibitor, the amount of ADP formed by the kinase reaction is reduced, and the resulting intact antibody-tracer interaction results in a high TR-FRET signal.
Test Compounds: The Test Compounds are screened in 1% DMSO (final) in the well. For 10 point titrations, 3-fold serial dilutions are conducted from the starting concentration of the customer’s choosing.
Peptide/Kinase Mixtures: All Peptide/Kinase Mixtures are diluted to a 2X working concentration in the appropriate Kinase Buffer.
ATP Solution: All ATP Solutions are diluted to a 4X working concentration in Kinase Buffer (50 mM HEPES pH 7.5, 0.01% BRIJ-35, 10 mM MgCl2,1 mM EGTA). ATP Km apparent is previously determined using a Z′-LYTE® assay.
Development Reagent Solution: The Development Reagent is diluted in Development Buffer.
Assay Protocol: Bar-coded Corning, low volume NBS, black 384-wellplate (Corning Cat. #4514) 1. 2.5 µL - 4X Test Compound or 100 nL 100X plus 2.4 µL kinase buffer. 2. 5 µL - 2X Peptide/Kinase Mixture. 3. 2.5 µL - 4X ATP Solution. 4. 30-second plate shake. 5. 60-minute Kinase Reaction incubation at room temperature. 6. 5 µL - Development Reagent Solution. 7. […]

[3] = test system: SK-OV3; test: NCI COMPARE panel (SRB growth inhibition), SK-OV3; type: cell-based; conditions: Homo sapiens, SK-OV-3; Ovarian Cancer, SK-OV3, 48 h
Method: as §1, §2, §3

[4] = test system: SNB-75; test: NCI COMPARE panel (SRB growth inhibition), SNB-75; type: cell-based; conditions: Homo sapiens; CNS Cancer, SNB-75, 48 h
Method: as §1, §2, §3

EGFR, sequence (P00533 25-1210): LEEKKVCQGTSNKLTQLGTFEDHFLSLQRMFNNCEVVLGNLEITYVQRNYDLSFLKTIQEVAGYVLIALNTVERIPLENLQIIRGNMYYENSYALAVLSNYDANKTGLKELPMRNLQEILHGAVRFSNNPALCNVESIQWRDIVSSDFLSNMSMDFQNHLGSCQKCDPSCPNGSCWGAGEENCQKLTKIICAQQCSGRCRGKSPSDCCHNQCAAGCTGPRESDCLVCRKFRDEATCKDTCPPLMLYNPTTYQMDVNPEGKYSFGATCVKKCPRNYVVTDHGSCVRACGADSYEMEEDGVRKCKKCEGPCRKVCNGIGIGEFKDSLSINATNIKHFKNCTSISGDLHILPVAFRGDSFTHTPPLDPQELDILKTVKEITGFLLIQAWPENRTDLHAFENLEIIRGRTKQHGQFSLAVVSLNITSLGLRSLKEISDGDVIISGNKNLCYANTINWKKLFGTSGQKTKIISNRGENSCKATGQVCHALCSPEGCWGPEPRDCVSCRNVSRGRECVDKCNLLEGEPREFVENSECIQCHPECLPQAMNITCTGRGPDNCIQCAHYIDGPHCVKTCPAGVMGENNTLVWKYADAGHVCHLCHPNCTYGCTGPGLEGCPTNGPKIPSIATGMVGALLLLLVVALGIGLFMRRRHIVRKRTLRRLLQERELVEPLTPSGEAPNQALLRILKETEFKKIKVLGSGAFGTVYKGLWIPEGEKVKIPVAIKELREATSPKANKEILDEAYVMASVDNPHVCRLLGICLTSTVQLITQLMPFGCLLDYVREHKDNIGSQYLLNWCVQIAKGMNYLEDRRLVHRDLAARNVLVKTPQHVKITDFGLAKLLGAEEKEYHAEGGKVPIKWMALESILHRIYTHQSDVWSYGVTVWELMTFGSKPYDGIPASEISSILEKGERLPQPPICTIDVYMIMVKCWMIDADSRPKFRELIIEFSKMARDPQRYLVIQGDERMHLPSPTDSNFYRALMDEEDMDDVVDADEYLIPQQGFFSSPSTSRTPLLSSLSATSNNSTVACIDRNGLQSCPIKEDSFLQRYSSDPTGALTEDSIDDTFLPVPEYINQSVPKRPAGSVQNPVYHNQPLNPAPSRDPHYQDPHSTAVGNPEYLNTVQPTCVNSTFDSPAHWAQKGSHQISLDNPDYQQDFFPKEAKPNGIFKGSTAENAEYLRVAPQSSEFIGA

With `CS(=O)(=O)Nc1cc(-c2ccc3ncc(C#N)c(Nc4cccc(Cl)c4F)c3c2)cnc1Cl` [Compound 10, N-[2-chloro-5-[4-(3-chloro-2-fluoro-anilino)-3-cyano-6-quinolyl]-3-pyridyl]methanesulfonamide] the GI50 [1] was no more than 75 nM, the inhibition at 0.1 µM [2] was greater than 90% and the GI50 [3] was greater than 250 nM. The GI50 [4] was no more than 75 nM.

For `CS(=O)(=O)Nc1cc(-c2ccc3ncnc(Nc4cccc(Cl)c4F)c3c2)cnc1Cl` [Compound 6, N-[2-chloro-5-[4-(3-chloro-2-fluoro-anilino)quinazolin-6-yl]-3-pyridyl] methanesulfonamide], the GI50 [1] was 125 to 250 nM, the IC50 ([2]; EGFR) was no more than 2 nM and the inhibition at 0.1 µM [2] was greater than 90%. It also gave a GI50 [3] of 75 to 125 nM and a GI50 [4] of no more than 75 nM.
